From ChEMBL document CHEMBL3612050, “Dual inhibition of Staphylococcus aureus DNA gyrase and topoisomerase IV activity by phenylalanine-derived (Z)-5-arylmethylidene rhodanines” (Bioorg Med Chem, 2015) come the findings set out here.

Converted amounts (≈) assume the structure as drawn.

Assay [1] has as its system Staphylococcus aureus. Briefly: Inhibition of Staphylococcus aureus Topoisomerase 4 assessed as inhibition of supercoiled pBR322 DNA relaxation after 30 mins by agarose gel electrophoresis.
For assay [2], the target named is DNA gyrase (Staphylococcus aureus) (UniProt P0A0K8+P20831).
Chain of DNA gyrase (Staphylococcus aureus) (P0A0K8 2-644 limits assumed): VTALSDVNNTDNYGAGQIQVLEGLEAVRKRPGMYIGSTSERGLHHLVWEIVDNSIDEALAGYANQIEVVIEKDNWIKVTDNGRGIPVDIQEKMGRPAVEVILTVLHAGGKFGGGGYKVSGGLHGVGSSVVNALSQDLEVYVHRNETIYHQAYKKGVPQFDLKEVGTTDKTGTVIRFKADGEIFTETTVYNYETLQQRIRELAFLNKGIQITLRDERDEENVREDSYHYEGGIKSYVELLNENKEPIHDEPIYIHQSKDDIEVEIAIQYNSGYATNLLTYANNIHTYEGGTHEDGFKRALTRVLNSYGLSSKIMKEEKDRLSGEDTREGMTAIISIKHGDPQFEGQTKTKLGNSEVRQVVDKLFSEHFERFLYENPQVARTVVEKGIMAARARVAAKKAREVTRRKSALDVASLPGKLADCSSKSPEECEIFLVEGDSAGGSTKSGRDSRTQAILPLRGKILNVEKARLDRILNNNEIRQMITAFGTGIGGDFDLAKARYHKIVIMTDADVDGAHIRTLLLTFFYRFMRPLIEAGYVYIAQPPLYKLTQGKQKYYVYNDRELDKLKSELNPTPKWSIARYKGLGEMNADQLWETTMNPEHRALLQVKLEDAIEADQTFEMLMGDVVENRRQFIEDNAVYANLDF
Chain of DNA gyrase (Staphylococcus aureus) (P20831 whole entry partner): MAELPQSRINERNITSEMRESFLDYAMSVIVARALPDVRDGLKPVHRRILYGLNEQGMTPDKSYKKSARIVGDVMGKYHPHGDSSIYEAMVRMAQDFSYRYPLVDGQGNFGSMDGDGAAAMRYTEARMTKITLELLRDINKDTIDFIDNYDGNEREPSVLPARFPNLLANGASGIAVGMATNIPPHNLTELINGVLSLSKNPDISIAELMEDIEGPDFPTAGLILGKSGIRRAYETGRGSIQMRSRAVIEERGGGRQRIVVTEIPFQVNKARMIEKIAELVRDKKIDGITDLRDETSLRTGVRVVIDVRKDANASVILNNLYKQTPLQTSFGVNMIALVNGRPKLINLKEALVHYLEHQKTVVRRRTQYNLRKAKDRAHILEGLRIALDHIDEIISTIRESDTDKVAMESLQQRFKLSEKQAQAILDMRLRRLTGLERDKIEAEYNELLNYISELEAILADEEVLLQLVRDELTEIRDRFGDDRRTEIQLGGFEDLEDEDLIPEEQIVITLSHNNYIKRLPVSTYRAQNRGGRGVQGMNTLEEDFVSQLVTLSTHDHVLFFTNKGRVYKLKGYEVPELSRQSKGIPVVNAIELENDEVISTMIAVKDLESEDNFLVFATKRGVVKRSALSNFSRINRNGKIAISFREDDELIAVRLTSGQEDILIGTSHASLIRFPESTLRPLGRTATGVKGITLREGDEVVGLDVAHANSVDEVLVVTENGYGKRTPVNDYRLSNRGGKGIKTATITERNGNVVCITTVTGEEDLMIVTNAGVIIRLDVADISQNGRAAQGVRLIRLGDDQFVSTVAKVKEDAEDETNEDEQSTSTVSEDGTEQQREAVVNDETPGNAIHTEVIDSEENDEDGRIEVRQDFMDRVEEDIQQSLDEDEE
Description: Inhibition of Staphylococcus aureus DNA gyrase assessed as inhibition of negative supercoiling of pBR322 DNA after 30 mins by agarose gel electrophoresis

For the compound `O=C(O)[C@H](Cc1ccccc1)N1C(=O)/C(=C/c2cccc(Cc3ccc(Cl)c(Cl)c3)c2)SC1=S`, the values for the MIC in assay [1] and in assay [2] were 0.75 µM (≈ 0.396 µg/mL) and 7.5 µM (≈ 3.96 µg/mL), respectively. Take `O=C(c1ccccc1)c1cccc(/C=C2\SC(=S)N([C@@H](Cc3ccccc3)C(=O)O)C2=O)c1`: the MIC in assay [1] and in assay [2] was 50 µM (≈ 23.7 µg/mL) throughout. With `O=C(O)[C@H](Cc1ccccc1)N1C(=O)/C(=C/c2cccc(Cc3ccccc3)c2)SC1=S`, the MIC in assay [1] was 17.5 µM (≈ 8.04 µg/mL); in assay [2], 25 µM (≈ 11.5 µg/mL). Consider `O=C(O)[C@H](Cc1ccccc1)N1C(=O)/C(=C/c2cccc(Oc3ccccc3)c2)SC1=S`, for which the values for the MIC in assay [1] and in assay [2] were 10 µM (≈ 4.62 µg/mL) and 50 µM (≈ 23.1 µg/mL), respectively. On the same counts, the results for `O=C(O)[C@H](Cc1ccccc1)N1C(=O)/C(=C/c2cccc(OCc3ccccc3)c2)SC1=S` are 17.5 µM (≈ 8.32 µg/mL) and 25 µM (≈ 11.9 µg/mL).

`O=C(O)[C@H](Cc1ccccc1)N1C(=O)/C(=C/c2cccc(-c3ccccc3)c2)SC1=S`: the MIC in assay [1] was found to be 0.5 µM (≈ 0.223 µg/mL); in assay [2], 17.5 µM (≈ 7.8 µg/mL). The like results for `O=C(O)[C@H](Cc1ccccc1)N1C(=O)/C(=C/c2cccc(OC/C=C\c3ccccc3)c2)SC1=S` were, in that order, 5 µM (≈ 2.51 µg/mL) and 10 µM (≈ 5.02 µg/mL). `O=C(O)[C@H](Cc1ccccc1)N1C(=O)/C(=C/c2cccc(Oc3cccc(Cl)c3)c2)SC1=S`: the MIC in assay [1] stood at 7.5 µM (≈ 3.72 µg/mL); in assay [2], 10 µM (≈ 4.96 µg/mL).

On to `O=C(O)[C@H](Cc1ccccc1)N1C(=O)/C(=C/c2cccc(Oc3ccc(Cl)c(Cl)c3)c2)SC1=S`, for which the values for the MIC in assay [1] and in assay [2] were 2.5 µM (≈ 1.33 µg/mL) and 5 µM (≈ 2.65 µg/mL), respectively. For `CO[C@@H]1[C@@H](OC(N)=O)[C@@H](O)[C@H](Oc2ccc3c(O)c(NC(=O)c4ccc(O)c(CC=C(C)C)c4)c(=O)oc3c2C)OC1(C)C`, the MIC in assay [1] stood at 2.5 µM (≈ 1.53 µg/mL). `O=C(O)[C@@H](Cc1ccccc1)N1C(=O)/C(=C/c2cccc(Oc3ccc(F)cc3)c2)SC1=S`: the MIC was 5 µM (≈ 2.4 µg/mL) in assay [1] and 17.5 µM (≈ 8.39 µg/mL) in assay [2]. Take `O=C(O)[C@H](Cc1ccccc1)N1C(=O)/C(=C/c2cccc(-c3ccc(Cl)c(Cl)c3)c2)SC1=S`: the MIC was found to be 10 µM (≈ 5.14 µg/mL) in assay [1] and 5 µM (≈ 2.57 µg/mL) in assay [2].
